Measured values published in patent US11576892B2, “Benzopyran derivatives and uses thereof” (Novation Pharmaceuticals Inc., priority 2015, dated 2023).

Legend:
Htt mRNA = assay: mRNA stability reporter gene (luciferase) assay, Htt; format: cell-based; conditions: 10 μM, 24 h, n.a. = no activity
Procedure: (§1) The basic principle of a reporter gene assay for determining compounds that destabilize mRNA is described in detail in WO 00/39314. A number of these assays for various drug targets have been developed and were tested with the compounds described in this disclosure. For THP-1 cells, compound is added at the time of the addition of LPS and luciferase measurements are taken 24 hours later or as indicated. For other cell lines, cells were plated in 96 well plates at 5*10^5 cells per 100 ul per well and incubated over night at 37° C. Compounds were then added and luciferase activity was measured after 24 hours. The activity was compared to other mRNA stability assays established for a range of other drug targets and found to be specific for IL-6, IL-12p40 and IL-23p19. Luciferase activity in the IL-6, IL-12 and IL-23 assays was inhibited by 10 μM benzopyran derivatives by >40% (Table IV).

IL-23 p19 mRNA = assay: mRNA stability reporter gene (luciferase) assay, IL-23 p19; format: cell-based; conditions: 10 μM, 24 h, n.a. = no activity
Procedure: as §1

SNCA mRNA = assay: mRNA stability reporter gene (luciferase) assay, SNCA; format: cell-based; conditions: 10 μM, 24 h, n.a. = no activity
Procedure: as §1

DNMT1 mRNA = assay: mRNA stability reporter gene (luciferase) assay, DNMT1; format: cell-based; conditions: 10 μM, 24 h, n.a. = no activity
Procedure: as §1

APP mRNA = assay: mRNA stability reporter gene (luciferase) assay, APP; format: cell-based; conditions: 10 μM, 24 h, n.a. = no activity
Procedure: as §1

IL-6 release from PBMCs = IL-6 release from PBMCs measured by ELISA; format: cell-based; conditions: LPS or PHA stimulated human PBMCs
Procedure: (§2) Mononuclear cells are obtained from the blood of healthy volunteers via centrifugation and cultivated on tissue culture dishes with the test compound at various concentrations Schnyder, Bollinger et al. (1990). Inhibition of interleukin-1 release by IX 207-887. Agents Actions. 30: 350-362. Fresh human mononuclear cells were isolated on Ficoll-Paque gradient and washed several times. Fresh medium, test compound and LPS (10 μg/ml) or PHA (5 μg/ml) as stimulant are added and the monocytes incubated for a further day. The media are then removed and clarified by centrifugation at 1000×g for 10 min. Samples are stored at […] until the determinations can be made. IFNγ, IL 1β, IL 6, and IL-17 are determined using commercially available ELISA kits.

IL-1β release from PBMCs = IL-1β release from PBMCs measured by ELISA; format: cell-based; conditions: LPS or PHA stimulated human PBMCs
Procedure: as §2

[1] = system: IL-6 release from THP 1 cells; assay: IL-6 release from THP 1 cells measured by ELISA; format: cell-based, human; conditions: IFNγ/LPS-stimulated THP 1 cells, 24 h
Procedure: The THP 1 cell line is generally available and is described by Tsuchia et. al. Tsuchiya, Yamabe et al. (1980). Establishment and characterization of a human acute monocytic leukemia cell line (THP-1). Int J Cancer. 26: 171-176.
900 μl THP 1 cells (0.5×10^6 cells) together with 100 Uγ interferon/0.9 ml RPMI 1640 medium (containing 2 mM L glutamine and 5% heat inactivated fetal calf serum) are pipetted into 24-well culture plates. 100 μl of the compound to be tested are then added. After 3 hours at 37° C. in 5% CO2/95% air, 10 μl lipopolysaccharide (LPS) 500 μg/ml is added and the incubation continued for a further 24 hours. Appropriate controls (with and without stimulus, solvent) are also included. The media are then removed and clarified by centrifugation at 1000 g for 10 min. Samples are stored at […] until the determinations can be made. IL 1β, IL 6 IL-12, and IL-23 assays are determined using commercially available ELISA kits. In these tests, the compounds of the disclosure may inhibit IL-1β, IL-6, IL-12 and IL-23 release at a concentration of about 10 to 50 μM. The compounds are non-toxic based on resazurin measurements as described in Didiot, Hewett et al. (2013). Identification of cardiac glycoside molecules as inhibitors of c-Myc IRES-mediated translation. J Biomol Screen. 18: 407-419.

IL-12 p40 mRNA = assay: mRNA stability reporter gene (luciferase) assay, IL-12 p40; format: cell-based; conditions: 10 μM, 24 h, n.a. = no activity
Procedure: as §1

IL-6 mRNA = assay: mRNA stability reporter gene (luciferase) assay, IL-6; format: cell-based; conditions: luciferase reporter, 24 h; unit printed truncated
Procedure: as §1

SMILES: COc1cc(O)c2c(c1OC)/C=C/C[C@H](O)[C@H](O)C(=O)/C=C\C[C@H](C)OC2=O [RAA, radicicol analog A, reference compound]
- Htt mRNA stability assay (% inhibition) (Htt mRNA): 35 % inhibition
- IL-23 p19 mRNA stability assay (% inhibition) (IL-23 p19 mRNA): 94 % inhibition
- SNCA mRNA stability assay (% inhibition) (SNCA mRNA): 25 % inhibition
- DNMT1 mRNA stability assay (% inhibition) (DNMT1 mRNA): 19 % inhibition
- APP mRNA stability assay (% inhibition) (APP mRNA): 5 % inhibition
- IL-6 release from PBMCs (% control) (IL-6 release from PBMCs; 2.5 μM): 10 % control
- IL-6 release from PBMCs (% control) (IL-6 release from PBMCs; 5 μM): 9 % control
- IL-6 release from PBMCs (% control) (IL-6 release from PBMCs; 10 μM): 11 % control
- IL-6 release from PBMCs (% control) (IL-6 release from PBMCs; 20 μM): 11 % control
- IL-1β release from PBMCs (% control) (IL-1β release from PBMCs; 2.5 μM): 4 % control
- IL-1β release from PBMCs (% control) (IL-1β release from PBMCs; 5 μM): 4 % control
- IL-1β release from PBMCs (% control) (IL-1β release from PBMCs; 10 μM): 4 % control
- IL-1β release from PBMCs (% control) (IL-1β release from PBMCs; 20 μM): 4 % control
- IL-6 release from THP 1 cells, % control ([1]; 10 μM): 3 % control
- IL-6 release from THP 1 cells, % control ([1]; 40 μM): 2 % control
- IL-6 release from THP 1 cells, % control ([1]; 100 μM): 3 % control
- IL-12 p40 mRNA stability assay (% inhibition) (IL-12 p40 mRNA): 64 % inhibition
- IC50 (IL-6 mRNA): 128 nM
